In ChEMBL document CHEMBL1201862, “PubChem BioAssay data set” (2004):
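In this assay, cells in 96-well plates receive the compound at five concentrations for 48 hours. Endpoints are linearly interpolated between the surrounding concentrations. Abbreviation: GI50, concentration required for 50% inhibition of growth.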 Activity calls are given as the source filed them. Cut-off read from the data, not from the text of the source: active = GI50 up to about 1.1 µM and inactive = higher.

Assays:
Assay in all cases: NCI-60 cell line screen, 48 h
CAKI-1 = tested on: CAKI-1
CCRF-CEM = tested on: CCRF-CEM
EKVX = tested on: EKVX
HOP-62 = tested on: HOP-62
IGROV-1 = tested on: IGROV-1
K562 = tested on: K562
KM12 = tested on: KM12
NCI-H23 = tested on: NCI-H23
NCI/ADR-RES = tested on: NCI/ADR-RES
RPMI-8226 = tested on: RPMI-8226
RXF 393 = tested on: RXF 393
SF-539 = tested on: SF-539
SK-MEL-5 = tested on: SK-MEL-5
SK-OV-3 = tested on: SK-OV-3
SNB-19 = tested on: SNB-19
SR = tested on: SR
UACC-62 = tested on: UACC-62
A549 = tested on: A549
Malme-3M = tested on: Malme-3M
OVCAR-3 = tested on: OVCAR-3

SMILES	GI50 (CAKI-1)	GI50 (CCRF-CEM)	GI50 (EKVX)	GI50 (HOP-62)	GI50 (IGROV-1)	GI50 (K562)	GI50 (KM12)	GI50 (NCI-H23)	GI50 (NCI/ADR-RES)	GI50 (RPMI-8226)	GI50 (RXF 393)	GI50 (SF-539)	GI50 (SK-MEL-5)	GI50 (SK-OV-3)	GI50 (SNB-19)	GI50 (SR)	GI50 (UACC-62)	GI50 (A549)	GI50 (Malme-3M)	GI50 (OVCAR-3)
CCCCNC(=O)Nc1c(C(N)=O)c2n(c1C(=O)OCC)CCCCC2	> 100 µM (inactive)	> 100 µM (inactive)	> 100 µM (inactive)	> 100 µM (inactive)	> 100 µM (inactive)	> 100 µM (inactive)	> 100 µM (inactive)	> 100 µM (inactive)	> 100 µM (inactive)	> 100 µM (inactive)	> 100 µM (inactive)	> 100 µM (inactive)	> 100 µM (inactive)	> 100 µM (inactive)	> 100 µM (inactive)	75.9 µM (inactive)	> 100 µM (inactive)	–	–	–
O=C1c2ccccc2-c2nc(-c3ccccc3)cc3c2c1nc1ccccc13	27.2 µM (inactive)	0.59 µM (active)	23.5 µM (inactive)	16.7 µM (inactive)	4.12 µM (inactive)	1 µM (active)	15.6 µM (inactive)	3.6 µM (inactive)	14.5 µM (inactive)	0.479 µM (active)	29.5 µM (inactive)	–	2.67 µM (inactive)	19.5 µM (inactive)	19.4 µM (inactive)	2.11 µM (inactive)	2.56 µM (inactive)	16.9 µM (inactive)	4.7 µM (inactive)	0.141 µM (active)
CC(C)C(=O)OCC1OC(n2c(Br)nc3c(=O)[nH]c(N)nc32)C(OC(=O)C(C)C)C1OC(=O)C(C)C (stereo not given)	–	–	> 100 µM (inactive)	> 100 µM (inactive)	> 10 µM (inactive)	–	–	–	> 100 µM (inactive)	–	–	–	> 10 µM (inactive)	30.3 µM (inactive)	81.8 µM (inactive)	38 µM (inactive)	31.8 µM (inactive)	35.6 µM (inactive)	> 100 µM (inactive)	> 100 µM (inactive)
CCOC(=O)c1c(-c2ccc(Br)cc2)ccn1C	> 10 µM (inactive)	> 10 µM (inactive)	> 10 µM (inactive)	> 10 µM (inactive)	> 10 µM (inactive)	> 10 µM (inactive)	> 10 µM (inactive)	> 10 µM (inactive)	> 10 µM (inactive)	> 10 µM (inactive)	4.65 µM (inactive)	> 10 µM (inactive)	> 10 µM (inactive)	> 10 µM (inactive)	> 10 µM (inactive)	–	> 10 µM (inactive)	> 10 µM (inactive)	> 10 µM (inactive)	> 10 µM (inactive)
Cn1c2c(c3ccccc31)CC(=O)N1CCCC(C1)CC21OCCO1 (stereo not given)	> 100 µM (inactive)	> 100 µM (inactive)	> 100 µM (inactive)	> 100 µM (inactive)	> 100 µM (inactive)	> 100 µM (inactive)	> 100 µM (inactive)	> 100 µM (inactive)	> 100 µM (inactive)	> 100 µM (inactive)	13.6 µM (inactive)	–	> 100 µM (inactive)	> 100 µM (inactive)	> 100 µM (inactive)	> 100 µM (inactive)	> 100 µM (inactive)	> 100 µM (inactive)	> 100 µM (inactive)	> 100 µM (inactive)
COc1ccccc1C(=O)Nc1ccc(Cl)c(C(=O)OC(C)C)c1	> 67 µM (inactive)	36.4 µM (inactive)	39.9 µM (inactive)	48 µM (inactive)	> 66.8 µM (inactive)	28.4 µM (inactive)	25.9 µM (inactive)	13.5 µM (inactive)	16.4 µM (inactive)	18.3 µM (inactive)	25 µM (inactive)	> 67.3 µM (inactive)	31.8 µM (inactive)	99.5 µM (inactive)	> 65.3 µM (inactive)	–	25.9 µM (inactive)	40.2 µM (inactive)	4.45 µM (inactive)	> 46.1 µM (inactive)
CC1=NN(c2nc(N)nc(CSCc3nc(N)nc(N(C)C)n3)n2)C(C)(C)C1	> 100 µM (inactive)	> 100 µM (inactive)	> 100 µM (inactive)	> 100 µM (inactive)	> 100 µM (inactive)	18.2 µM (inactive)	> 100 µM (inactive)	> 100 µM (inactive)	> 100 µM (inactive)	> 100 µM (inactive)	> 100 µM (inactive)	> 100 µM (inactive)	> 100 µM (inactive)	> 100 µM (inactive)	> 100 µM (inactive)	> 100 µM (inactive)	> 100 µM (inactive)	> 100 µM (inactive)	–	> 100 µM (inactive)
O=C1OC2(C(F)(F)F)Oc3ccccc3CN2C12CCCCC2 (stereo not given)	18.7 µM (inactive)	25.1 µM (inactive)	38.2 µM (inactive)	29.2 µM (inactive)	48.4 µM (inactive)	20.4 µM (inactive)	23.8 µM (inactive)	25.4 µM (inactive)	31.1 µM (inactive)	–	20.4 µM (inactive)	33.4 µM (inactive)	–	26.7 µM (inactive)	36.3 µM (inactive)	22.8 µM (inactive)	28 µM (inactive)	28.6 µM (inactive)	18 µM (inactive)	28.6 µM (inactive)
NCCCC[C@H](N)C(=O)Nc1ccc(-c2nc3ccccc3s2)cc1Cl	4.85 µM (inactive)	3.28 µM (inactive)	5.6 µM (inactive)	13.2 µM (inactive)	< 0.01 µM (active)	2.74 µM (inactive)	2.97 µM (inactive)	–	16.5 µM (inactive)	–	12.4 µM (inactive)	–	12.5 µM (inactive)	16.3 µM (inactive)	12.6 µM (inactive)	2.36 µM (inactive)	14.6 µM (inactive)	2.96 µM (inactive)	15.1 µM (inactive)	0.247 µM (active)
CCOC(O)(NC(=O)C(C(F)(F)F)C(F)(F)F)C(F)(F)F (stereo not given)	–	> 100 µM (inactive)	> 100 µM (inactive)	–	> 100 µM (inactive)	> 100 µM (inactive)	–	> 100 µM (inactive)	> 100 µM (inactive)	> 100 µM (inactive)	> 100 µM (inactive)	> 100 µM (inactive)	> 100 µM (inactive)	–	> 100 µM (inactive)	> 100 µM (inactive)	–	> 100 µM (inactive)	–	–
COC(=O)C1=Cc2cc(OC)c(O)cc2[C@@H](c2ccc(O)c(OC)c2)[C@@H]1C(=O)OC	–	> 100 µM (inactive)	> 100 µM (inactive)	> 100 µM (inactive)	> 100 µM (inactive)	57.3 µM (inactive)	37.6 µM (inactive)	> 100 µM (inactive)	> 100 µM (inactive)	> 100 µM (inactive)	61.7 µM (inactive)	> 100 µM (inactive)	43.9 µM (inactive)	–	> 100 µM (inactive)	> 100 µM (inactive)	–	> 100 µM (inactive)	> 100 µM (inactive)	> 100 µM (inactive)
CSC(=S)N/N=C(\C)c1ccc(S(=O)(=O)N(C)c2ccccc2)cc1	50.5 µM (inactive)	–	21.8 µM (inactive)	56.5 µM (inactive)	3.5 µM (inactive)	13.9 µM (inactive)	21.9 µM (inactive)	19.1 µM (inactive)	28.8 µM (inactive)	27.8 µM (inactive)	77.8 µM (inactive)	48.3 µM (inactive)	–	59.2 µM (inactive)	26.4 µM (inactive)	5.19 µM (inactive)	43.2 µM (inactive)	29.1 µM (inactive)	2.07 µM (inactive)	16.7 µM (inactive)
CCOC(=O)c1cc(C(=O)c2ccccc2)n2nc(-c3ccc(Cl)cc3)ccc12	31.8 µM (inactive)	> 100 µM (inactive)	21.8 µM (inactive)	19.5 µM (inactive)	18.7 µM (inactive)	> 100 µM (inactive)	20 µM (inactive)	27 µM (inactive)	23.4 µM (inactive)	91.2 µM (inactive)	15.2 µM (inactive)	–	17.4 µM (inactive)	17 µM (inactive)	16.4 µM (inactive)	72.6 µM (inactive)	17.3 µM (inactive)	15.4 µM (inactive)	19.5 µM (inactive)	–
CC(C)CNC(=O)Cn1c2c(c3ccccc31)CCCC2	79.3 µM (inactive)	56.4 µM (inactive)	71 µM (inactive)	54.3 µM (inactive)	14.9 µM (inactive)	76.9 µM (inactive)	–	> 100 µM (inactive)	59.7 µM (inactive)	40.6 µM (inactive)	–	> 100 µM (inactive)	64.7 µM (inactive)	23.7 µM (inactive)	85.3 µM (inactive)	> 100 µM (inactive)	50.1 µM (inactive)	49.7 µM (inactive)	82.4 µM (inactive)	39 µM (inactive)
O=C(N/C(=C\c1ccccc1)C1Nc2ccccc2C(=O)O1)c1ccccc1 (stereo not given)	> 100 µM (inactive)	19.1 µM (inactive)	> 100 µM (inactive)	20.4 µM (inactive)	34.3 µM (inactive)	21.5 µM (inactive)	15.8 µM (inactive)	37.5 µM (inactive)	25.9 µM (inactive)	23.3 µM (inactive)	23.6 µM (inactive)	20.2 µM (inactive)	19.6 µM (inactive)	55.6 µM (inactive)	33.8 µM (inactive)	–	27.5 µM (inactive)	87.5 µM (inactive)	16.6 µM (inactive)	27.3 µM (inactive)
Cn1nc(-c2ccc(S(=O)(=O)N/C(=N/c3ccc(Cl)cc3)NN)s2)cc1C(F)(F)F	18.7 µM (inactive)	–	14.8 µM (inactive)	16.5 µM (inactive)	19.3 µM (inactive)	14.1 µM (inactive)	16.6 µM (inactive)	20.3 µM (inactive)	21.8 µM (inactive)	21.3 µM (inactive)	11.1 µM (inactive)	13.5 µM (inactive)	18.2 µM (inactive)	20.9 µM (inactive)	16.5 µM (inactive)	17.4 µM (inactive)	16.9 µM (inactive)	15 µM (inactive)	–	19.7 µM (inactive)
